Source: patent publication US20260184663A1, “INDENE COMPOUNDS, PHARMACEUTICAL COMPOSITIONS THEREOF, AND THEIR THERAPEUTIC APPLICATIONS” (NucMito Pharmaceuticals co. Ltd., priority 2022, published 2026)

What was measured:
Type in all cases: cell-based
[1] = system: alpha-smooth muscle actin (α-SMA); assay: Inhibition of TGF-β induced expression of alpha-smooth muscle actin (α-SMA) in CFSC cells (western blot); conditions: compound at 10 μM, TGF-β (10 ng/mL), 24 hours, band intensity vs TGF-β only
Procedure, shortened: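 Values are percent reduction of α-SMA band intensity relative to cells given TGF-β alone, quantified by Western blot densitometry with β-actin probed. Compound was applied at 10 μM alongside 10 ng/mL TGF-β to serum-free CFSC cultures for 24 h at 37 °C.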

[2] = system: A549 (lung adenocarcinoma); assay: Antiproliferative activity (CCK-8 cell viability), A549; conditions: Homo sapiens, 72 h; for inhibition at 3.3 µM: Compound concentration: 3.3 μM; for inhibition at 3.3 µM / inhibition at 10 µM: read-out: Antiproliferative activity in cancerous cells, A549 (inhibition of cell growth); for inhibition at 10 µM: Compound concentration: 10 μM
Procedure, shortened: (§1)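 Cells grown in DMEM (HepG2, SW480), MEM (HeLa) or F-12K (A549), each with 10% FBS, then exposed to compound at 3.3, 10 or 30 μM for 72 h at 37 °C. CCK-8 absorbance at 450 nm; viability expressed as percent of DMSO-treated cells, graded as growth inhibition bands.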

[3] = system: B16F10 (malignant melanoma); assay: Antiproliferative activity (CCK-8 cell viability), B16F10; conditions: Mus musculus, 72 h; for inhibition at 3.3 µM: B16-F10, Compound concentration: 3.3 μM; for inhibition at 3.3 µM / inhibition at 10 µM: read-out: Antiproliferative activity in cancerous cells, B16F10 (inhibition of cell growth); for inhibition at 10 µM: B16-F10, Compound concentration: 10 μM
Procedure, shortened: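 B16F10 melanoma cells grown in DMEM with 10% FBS were plated in 96-well plates at 2,000-5,000 cells/well. After attachment they were exposed to compound in medium for 72 h at 37° C. CCK-8 solution (10 μL) was then added, and after 4 h at 37° C absorbance was read at 450 nm.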

[4] = system: MDA-MB-231 (breast cancer); assay: Antiproliferative activity (CCK-8 cell viability), MDA-MB-231; conditions: Homo sapiens, 72 h, read-out: Antiproliferative activity in cancerous cells, MDA-MB-231 (inhibition of cell growth); for inhibition at 3.3 µM: Compound concentration: 3.3 μM; for inhibition at 10 µM: Compound concentration: 10 μM
Procedure, shortened: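 MDA-MB-231 breast cancer cells, grown in DMEM with 10% FBS, were plated in 96-well plates at 2,000-5,000 cells/well. Once attached, they were exposed to compound and incubated at 37° C. for 72 h. Viability was then measured with CCK-8 (10 μL per well, 4 h at 37° C.) by absorbance at 450 nm, relative to DMSO vehicle wells.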

[5] = system: HepG2 (liver cancer); assay: Antiproliferative activity (CCK-8 cell viability), HepG2; conditions: Homo sapiens, 72 h, read-out: Antiproliferative activity in cancerous cells, HepG2 (inhibition of cell growth); for inhibition at 3.3 µM: Compound concentration: 3.3 μM; for inhibition at 10 µM: Compound concentration: 10 μM
Procedure, shortened: as §1

[6] = system: SW480 (colon cancer); assay: Antiproliferative activity (CCK-8 cell viability), SW480; conditions: Homo sapiens, 72 h, read-out: Antiproliferative activity in cancerous cells, SW480 (inhibition of cell growth); for inhibition at 3.3 µM: Compound concentration: 3.3 μM; for inhibition at 10 µM: Compound concentration: 10 μM
Procedure, shortened: as §1

[7] = system: A431 (epidermoid carcinoma); assay: Antiproliferative activity (CCK-8 cell viability), A431; conditions: Homo sapiens, 72 h; for inhibition at 3.3 µM: A-431, Compound concentration: 3.3 μM; for inhibition at 3.3 µM / inhibition at 10 µM: read-out: Antiproliferative activity in cancerous cells, A431 (inhibition of cell growth); for inhibition at 10 µM: A-431, Compound concentration: 10 μM
Procedure, shortened: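 A431 epidermoid carcinoma cells grown in DMEM with 10% FBS were plated at 2,000-5,000 cells/well in 96-well plates. After attachment they were exposed to compound at 3.3 μM, 10 μM, or 30 μM for 72 h at 37° C. Viability was then assessed by CCK-8 against DMSO vehicle-treated wells.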

[8] = system: HeLa (cervical cancer); assay: Antiproliferative activity (CCK-8 cell viability), HeLa; conditions: Homo sapiens, 72 h, read-out: Antiproliferative activity in cancerous cells, HELA (inhibition of cell growth); for inhibition at 3.3 µM: Compound concentration: 3.3 μM; for inhibition at 10 µM: Compound concentration: 10 μM
Procedure, shortened: as §1

| SMILES | inhibition at 10 µM [1] [%] | inhibition at 3.3 µM [2] [%] | inhibition at 10 µM [2] [%] | inhibition at 3.3 µM [3] [%] | inhibition at 10 µM [3] [%] | inhibition at 3.3 µM [4] [%] | inhibition at 10 µM [4] [%] | inhibition at 3.3 µM [5] [%] | inhibition at 10 µM [5] [%] | inhibition at 3.3 µM [6] [%] | inhibition at 10 µM [6] [%] | inhibition at 3.3 µM [7] [%] | inhibition at 10 µM [7] [%] | inhibition at 3.3 µM [8] [%] | inhibition at 10 µM [8] [%] | inhibition at 30 µM ([2]; Compound concentration: 30 μM, read-out: Antiproliferative activity in cancerous cells, A549) [%] | inhibition at 30 µM ([3]; B16-F10, Compound concentration: 30 μM, read-out: Antiproliferative activity in cancerous cells, B16F10) [%] | inhibition at 30 µM ([7]; A-431, Compound concentration: 30 μM, read-out: Antiproliferative activity in cancerous cells, A431) [%] |
| --- | --- | --- | --- | --- | --- | --- | --- | --- | --- | --- | --- | --- | --- | --- | --- | --- | --- | --- |
| CC1=C(CC(=O)O)c2cc(F)ccc2/C1=C\c1ccc(CN(Cc2ccccn2)c2ccccc2)cc1 [B16, (Z)-2-(5-Fluoro-2-methyl-1-(4-((phenyl(pyridin-2-ylmethyl)amino)methyl)-benzylidene)-1H-inden-3-yl)acetic acid] | > 80 | ≥ 50 | ≥ 50 | 30 to 50 | ≥ 50 | ≥ 50 | ≥ 50 | < 30 | ≥ 50 | < 30 | < 30 | < 30 | ≥ 50 | 30 to 50 | ≥ 50 |  |  |  |
| COc1ccc2c(c1)C(CC(=O)O)=C(C)/C2=C/c1cccc(COc2ccccc2)c1 [B20, (Z)-2-(5-Methoxy-2-methyl-1-(3-(phenoxymethyl)benzylidene)-1H-inden-3-yl)-acetic acid] | > 80 | < 30 | < 30 | < 30 | < 30 | 30 to 50 | 30 to 50 | < 30 | < 30 | 30 to 50 | 30 to 50 | < 30 | < 30 | < 30 | 30 to 50 | < 30 | < 30 | < 30 |
| CC1=C(CC(=O)O)c2cc(F)ccc2/C1=C\c1cccc(COc2cccc(C(C)(C)C)c2)c1 [B21, (Z)-2-(1-(3-((3-(Tert-butyl)phenoxy)methyl)benzylidene)-5-fluoro-2-methyl-1H-inden-3-yl)acetic acid] | > 80 | < 30 | ≥ 50 | < 30 | ≥ 50 | ≥ 50 | ≥ 50 | < 30 | 30 to 50 | < 30 | 30 to 50 | < 30 | 30 to 50 | < 30 | ≥ 50 |  |  |  |
| COc1ccc2c(c1)/C(=C\c1cccc(COc3ccc(F)cc3)c1)C(C)=C2CC(=O)O [B22, (Z)-2-(1-(3-((4-Fluorophenoxy)methyl)benzylidene)-6-methoxy-2-methyl-1H-inden-3-yl)acetic acid] | > 80 | < 30 | < 30 | < 30 | < 30 | 30 to 50 | 30 to 50 | < 30 | < 30 | < 30 | < 30 | < 30 | < 30 | < 30 | 30 to 50 |  |  |  |
